Measured values: ChEMBL document CHEMBL1143211, “Inhibitors of proteases and amide hydrolases that employ an alpha-ketoheterocycle as a key enabling functionality” (Bioorg Med Chem, 2008)
pIC50, pKi: −log10 of the molar value. Values belong to the compound of their own block, whether it stands above or below them.

Experiments:
[1] = Inhibition of human beta-tryptase
[2] = Inhibition of HDAC
[3] = target: Prolyl endopeptidase (Sus scrofa, UniProt P23687)
[4] = target: Cathepsin S (Homo sapiens, UniProt P25774); assay: Inhibition of human recombinant cathepsin S
Sequence of Cathepsin S (P25774 whole entry): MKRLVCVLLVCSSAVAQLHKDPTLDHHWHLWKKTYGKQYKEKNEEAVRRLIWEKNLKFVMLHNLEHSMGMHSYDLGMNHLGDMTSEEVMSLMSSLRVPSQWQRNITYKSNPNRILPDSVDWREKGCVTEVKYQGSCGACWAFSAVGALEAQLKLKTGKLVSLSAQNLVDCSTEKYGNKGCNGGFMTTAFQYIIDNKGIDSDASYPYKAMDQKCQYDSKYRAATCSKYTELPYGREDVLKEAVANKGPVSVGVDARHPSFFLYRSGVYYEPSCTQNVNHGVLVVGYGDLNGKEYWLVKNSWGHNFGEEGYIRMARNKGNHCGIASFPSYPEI

[5] = target: Prothrombin (Homo sapiens, UniProt P00734); assay: Inhibition of human alpha-thrombin

Sequence of Prolyl endopeptidase (P23687 whole entry): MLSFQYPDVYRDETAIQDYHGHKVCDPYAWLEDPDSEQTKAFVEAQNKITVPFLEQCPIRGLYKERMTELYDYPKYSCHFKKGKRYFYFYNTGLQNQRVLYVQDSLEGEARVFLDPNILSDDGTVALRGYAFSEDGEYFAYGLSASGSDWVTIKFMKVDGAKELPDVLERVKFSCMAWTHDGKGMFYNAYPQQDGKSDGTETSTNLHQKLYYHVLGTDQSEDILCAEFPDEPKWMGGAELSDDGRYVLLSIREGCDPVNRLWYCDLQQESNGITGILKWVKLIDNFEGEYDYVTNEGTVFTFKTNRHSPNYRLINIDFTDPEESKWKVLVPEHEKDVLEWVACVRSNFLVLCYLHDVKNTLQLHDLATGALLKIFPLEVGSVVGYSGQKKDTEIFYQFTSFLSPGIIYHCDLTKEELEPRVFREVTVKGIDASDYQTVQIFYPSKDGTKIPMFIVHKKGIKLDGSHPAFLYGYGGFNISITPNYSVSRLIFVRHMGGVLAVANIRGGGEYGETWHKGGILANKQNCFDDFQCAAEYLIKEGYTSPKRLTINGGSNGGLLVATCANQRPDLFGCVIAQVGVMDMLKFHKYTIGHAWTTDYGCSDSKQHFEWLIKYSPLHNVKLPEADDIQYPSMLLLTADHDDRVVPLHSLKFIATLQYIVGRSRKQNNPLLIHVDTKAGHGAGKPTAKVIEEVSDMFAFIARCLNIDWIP

Structure (SMILES): CC(=O)N[C@@H](CC(C)C)C(=O)N[C@@H](CCCN=C(N)N)C(=O)c1nc2ccccc2s1
pKi [1]: 7.39

Structure (SMILES): CC(=O)N1C[C@H](O)C[C@H]1C(=O)N[C@@H](CCCNC(=N)N)C(=O)c1nccs1
pKi [1]: 6.74

Structure (SMILES): O=C(c1cscn1)[C@@H]1CCCN1C(=O)[C@@H]1CCCN1CCCc1ccccc1
pIC50 [3]: 7.89

Structure (SMILES): CC(NC(=O)[C@H](CC(=O)N(C)C)NC(=O)[C@@H](NC(=O)CC(C)(C)C)C(C)(C)C)C(=O)c1nc2ccccc2o1 (some centres undefined)
pIC50 [3]: 7.10

Structure (SMILES): O=C(c1ncc[nH]1)[C@@H]1CCCN1C(=O)[C@@H]1CCCN1CCCc1ccccc1
pIC50 [3]: 8.05

Structure (SMILES): CCCC(F)(F)C[C@H](NC(=O)N1CCOCC1)C(=O)N[C@@H](CC)C(=O)c1nc(C2CC2)no1
pKi [4]: > 7.00

Structure (SMILES): CC(NC(=O)[C@H](CC(=O)N(C)C)NC(=O)[C@@H](NC(=O)CC(C)(C)C)C(C)(C)C)C(=O)c1nc2ccccc2s1 (some centres undefined)
pIC50 [3]: 5.05

Structure (SMILES): O=C(c1cncs1)[C@@H]1CCCN1C(=O)[C@@H]1CCCN1CCCc1ccccc1
pIC50 [3]: 5.96

Structure (SMILES): NCCCCC(NC(=O)[C@H](Cc1ccccc1)NC(=O)[C@@H](Cc1ccccc1)NS(=O)(=O)Cc1ccccc1)C(=O)c1nc2ccccc2s1 (some centres undefined)
pKi [1]: 7.64

Structure (SMILES): CCC[C@H](NC(=O)[C@@H](CC(=O)N1CCOCC1)CC(C)(C)C)C(=O)c1nc2ccccc2o1
pKi [4]: > 7.00

Structure (SMILES): O=C(c1nc2ccccc2s1)[C@@H]1CCCN1C(=O)[C@@H]1CCCN1OCc1ccccc1
pIC50 [3]: 8.25

Structure (SMILES): O=C(c1ccccn1)[C@@H]1CCCN1C(=O)[C@@H]1CCCN1CCCc1ccccc1
pIC50 [3]: 8.16

Structure (SMILES): CC(=O)N1C[C@H](O)C[C@@H]1C(=O)N[C@@H](CCCNC(=N)N)C(=O)c1nc2ccccc2s1
pKi [1]: 6.42

Structure (SMILES): O=C(c1nc2ccccc2s1)[C@@H]1CCCN1C(=O)[C@@H]1CCCN1CCCc1ccccc1
pIC50 [3]: 8.40

Structure (SMILES): CC(=O)N1CCC[C@H]1C(=O)N[C@@H](CCCN=C(N)N)C(=O)c1nc2ccccc2s1
pIC50 [5]: 4.85
pKi [1]: 7.72

Structure (SMILES): CC(=O)N1CCC[C@@H]1C(=O)N[C@@H](CCCN=C(N)N)C(=O)c1nc2ccccc2s1
pKi [1]: 4.85

Structure (SMILES): O=C(c1nc2ccccc2o1)[C@@H]1CCCN1C(=O)[C@@H]1CCCN1CCCc1ccccc1
pIC50 [3]: 8.25

Structure (SMILES): O=C(C1=NCCS1)[C@@H]1CCCN1C(=O)[C@@H]1CCCN1CCCc1ccccc1
pIC50 [3]: 8.42

Structure (SMILES): CC(=O)NCC(=O)N[C@@H](CCCN=C(N)N)C(=O)c1nc2ccccc2s1
pKi [1]: 6.33

Structure (SMILES): O=C(c1nccs1)[C@@H]1CCCN1C(=O)[C@@H]1CCCN1CCCc1ccccc1
pIC50 [3]: 8.30

Structure (SMILES): CC[C@H](NC(=O)[C@H](CS(=O)(=O)Cc1ccccc1)OC(=O)N1CCOCC1)C(=O)c1nc2ccccc2o1
pKi [4]: > 8.00

Structure (SMILES): O=C(N[C@@H](CCc1ccccc1)C(=O)c1ncco1)[C@@H](CC(=O)N1CCOCC1)CC1CCCCC1
pKi [4]: > 7.00

Further lines, results first:

pIC50 [2]: < 4.30
Structure (SMILES): O=C(CCCCCCOc1ccc(-c2ccccc2)cc1)c1ncc[nH]1

pIC50 [2]: 6.37
Structure (SMILES): O=C(CCCCCCNc1ccc2ccccc2c1)c1ncco1

pIC50 [2]: 7.52
Structure (SMILES): COc1ccc(-c2csc(NC(=O)CCCCCCC(=O)c3ncco3)n2)cc1

pIC50 [2]: < 4.30
Structure (SMILES): O=C(CCCCCCOc1ccc(-c2ccccc2)cc1)c1nc2ccccc2o1

pIC50 [2]: 7.05
Structure (SMILES): O=C(CCCCCCC(=O)c1ncco1)Nc1cc2ccccc2[nH]1

pIC50 [2]: 6.00
Structure (SMILES): O=C(CCCCCCOc1ccc(-c2ccccc2)cc1)C1=NCCO1

pIC50 [2]: 7.22
Structure (SMILES): O=C(CCCCCCC(=O)c1ncco1)Nc1cccc(-c2ccccc2)c1

pIC50 [2]: 6.21
Structure (SMILES): O=C(CCCCCCOc1cccc(-c2ccccc2)c1)c1ncco1

pIC50 [2]: 6.96
Structure (SMILES): CNC(=O)C(=O)CCCCCCOc1ccc(-c2ccccc2)cc1

pIC50 [2]: < 4.30
Structure (SMILES): Cn1ccnc1C(=O)CCCCCCOc1ccc(-c2ccccc2)cc1

pIC50 [2]: 6.00
Structure (SMILES): O=C(CCCCCCOc1ccc(-c2ccccc2)cc1)c1ncco1

pIC50 [2]: < 4.30
Structure (SMILES): O=C(CCCCCCOc1ccc(-c2ccccc2)cc1)c1nccs1

pIC50 [2]: 6.51
Structure (SMILES): O=C(CCCCCC(=O)c1ncco1)Nc1cccc(-c2ccccc2)c1

pIC50 [2]: < 4.30
Structure (SMILES): O=C(CCCCCCOc1ccc(-c2ccccc2)cc1)c1ccccn1

pIC50 [2]: 6.00
Structure (SMILES): O=C(CCCCCCOc1ccc(-c2ccccc2)cc1)c1nnn[nH]1

pKi [4]: > 7.00
Structure (SMILES): CCCC[C@H](NC(=O)[C@H](CS(=O)(=O)Cc1ccccc1)NC(=O)N1CCOCC1)C(=O)c1nnc(-c2ccccc2)o1
